Experimental data as given in ChEMBL document CHEMBL4118249, “Discovery and Identification of Small Molecules as Methuosis Inducers with in Vivo Antitumor Activities” (J Med Chem, 2018).

Tests used:
MDA-MB-231 [1] = assay: Induction of methuosis in human MDA-MB-231 cells assessed as increase in vacuole formation at 1 uM after 24 hrs by phase contrast microscopic analysis relative to control; type: functional
MDA-MB-231 [2] = assay: Induction of methuosis in human MDA-MB-231 cells assessed as increase in vacuole formation at 10 uM after 24 hrs by phase contrast microscopic analysis relative to control; type: functional

Structure (SMILES) | Activity (MDA-MB-231 [1]) [%] | Activity (MDA-MB-231 [2]) [%]
O=C(Nc1cccc(C(F)(F)F)c1)c1cccc(Nc2cc(-c3cccnc3)nc3[nH]ccc23)c1 | 3.78 | 80.23
Cc1ccc(C(=O)Nc2cc(CN3CCN(C)CC3)cc(C(F)(F)F)c2)cc1Nc1cc(-c2cccnc2)nc2[nH]ccc12 | 0.62 | 0
Cc1ccc(NC(=O)c2cccc(C(F)(F)F)c2)cc1Nc1cc(-c2cccnc2)nc2c1ccn2C | 16.08 | 96.27
Cc1ccc(C(=O)Nc2cccc(C(F)(F)F)c2)cc1Nc1cc(-c2ccncc2)nc2[nH]ccc12 | 0 | 1.94
O=C(Nc1cccc(Nc2cc(-c3cccnc3)nc3[nH]ccc23)c1)c1cccc(C(F)(F)F)c1 | 96.61 | 98.98
Cc1ccc(NC(=O)c2cccc(C(F)(F)F)c2)cc1Nc1cc(-c2cccc(N)c2)nc2[nH]ccc12 | 0.27 | 1.63
Cc1ccc(NC(=O)c2cccc(C(F)(F)F)c2)cc1Nc1cc(-c2cccc(Cl)c2)nc2[nH]ccc12 | 0.03 | 0.33
Cc1ccc(C(=O)Nc2cccc(C(F)(F)F)c2)cc1Nc1cc(-c2cccnc2)nc2[nH]ccc12 | 70.29 | 99.42
Cc1ccc(NC(=O)c2cccc(C(F)(F)F)c2)cc1Nc1cc(-c2ccoc2)nc2[nH]ccc12 | 0.24 | 0
Cc1ccc(C(=O)N2CCOCC2)cc1Nc1cc(-c2cccnc2)nc2[nH]ccc12 | 0 | 0
Cc1ccc(NC(=O)c2cccc(C(F)(F)F)c2)cc1Nc1cc(-c2ccncc2)nc2[nH]ccc12 | 1.46 | 96.34
Cc1cccc(NC(=O)c2ccc(C)c(Nc3cc(-c4cccnc4)nc4[nH]ccc34)c2)c1 | 11.24 | 97.68
Cc1ccc(C(=O)Nc2cccc(OC(F)(F)F)c2)cc1Nc1cc(-c2cccnc2)nc2[nH]ccc12 | 38.57 | 99.66
Cc1ccc(NC(=O)c2cccc(C(F)(F)F)c2)cc1Nc1cc(-c2ccccc2)nc2[nH]ccc12 | 0 | 0
Cc1ccc(NC(=S)Nc2cccc(C(F)(F)F)c2)cc1Nc1cc(-c2cccnc2)nc2[nH]ccc12 | 1.26 | 87.3
Cc1ccc(NC(=O)c2cccc(C(F)(F)F)c2)cc1Nc1cc(-c2ccsc2)nc2[nH]ccc12 | 0 | 0.21
COc1cccc(NC(=O)c2ccc(C)c(Nc3cc(-c4cccnc4)nc4[nH]ccc34)c2)c1 | 76.86 | 100
Cc1ccc(C(=O)Nc2cccc(Cl)c2)cc1Nc1cc(-c2cccnc2)nc2[nH]ccc12 | 19.49 | 96.75
Cc1ccc(C(=O)Nc2cccc(C(F)(F)F)c2)cc1Nc1cc(-c2cccnc2)nc2c1ccn2C | 3.63 | 70.96
Cc1cc(NC(=O)c2ccc(C)c(Nc3cc(-c4cccnc4)nc4[nH]ccc34)c2)n(C)n1 | 2.48 | 95.24
Cc1ccc(C(=O)Nc2cc(C(F)(F)F)cc(C(F)(F)F)c2)cc1Nc1cc(-c2cccnc2)nc2[nH]ccc12 | 0 | 0
